In ChEMBL document CHEMBL1201862, “PubChem BioAssay data set” (2004):
Counter-ions that a name gives are not always drawn.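 Compound exposure: 48 hours, 5 concentrations, 96-well plates. GI50: concentration for 50% inhibition of growth.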 Calls of active or inactive are those of the source. No stated cut-off is given here; in the data, active = GI50 up to about 1.1 µM and inactive = higher.

Key:
Assay in all cases: growth of human tumour cells (NCI), 48 h
[1] = test system: HL-60
[2] = test system: SNB-19
[3] = test system: SF-539
[4] = test system: HCC 2998
[5] = test system: MCF7
[6] = test system: U-251
[7] = test system: SNB-75
[8] = test system: UO-31
[9] = test system: OVCAR-3
[10] = test system: NCI-H460
[11] = test system: OVCAR-4
[12] = test system: SW-620
[13] = test system: SK-OV-3
[14] = test system: DU-145
[15] = test system: SK-MEL-28
[16] = test system: KM12
[17] = test system: NCI/ADR-RES
[18] = test system: UACC-62
[19] = test system: SF-295
[20] = test system: LOX IMVI

Row | Structure (SMILES) | GI50 [1] | GI50 [2] | GI50 [3] | GI50 [4] | GI50 [5] | GI50 [6] | GI50 [7] | GI50 [8] | GI50 [9] | GI50 [10] | GI50 [11] | GI50 [12] | GI50 [13] | GI50 [14] | GI50 [15] | GI50 [16] | GI50 [17] | GI50 [18] | GI50 [19] | GI50 [20]
1 | O/N=C1/CCCc2nonc21 | > 100 µM (inactive) | > 100 µM (inactive) | > 100 µM (inactive) | > 100 µM (inactive) | > 100 µM (inactive) | > 100 µM (inactive) | > 100 µM (inactive) | > 100 µM (inactive) | > 100 µM (inactive) | > 100 µM (inactive) | > 100 µM (inactive) | > 100 µM (inactive) | > 100 µM (inactive) | > 100 µM (inactive) | > 100 µM (inactive) | > 100 µM (inactive) | > 100 µM (inactive) | > 100 µM (inactive) | > 100 µM (inactive) | > 100 µM (inactive)
2 | CSc1nc(SC)c2c(C)cn(Cc3ccccc3)c2n1 | 34 µM (inactive) | > 100 µM (inactive) | 93.1 µM (inactive) | 44.1 µM (inactive) | 45.4 µM (inactive) | > 100 µM (inactive) | 79.6 µM (inactive) | 56.8 µM (inactive) | > 100 µM (inactive) | 80.2 µM (inactive) | > 100 µM (inactive) | > 100 µM (inactive) | > 100 µM (inactive) | > 100 µM (inactive) | > 100 µM (inactive) | > 100 µM (inactive) | > 100 µM (inactive) | > 100 µM (inactive) | > 100 µM (inactive) | 60.4 µM (inactive)
3 | COc1ccc(/N=C2\C(=S)N(c3ccc(OC)cc3)/C(=N/S(=O)(=O)c3ccccc3)N2c2ccccc2)cc1 | 0.986 µM (active) | 36.9 µM (inactive) | 9.12 µM (inactive) | > 34.5 µM (inactive) | 17 µM (inactive) | 8.53 µM (inactive) | 17.3 µM (inactive) | 3.59 µM (inactive) | 5.5 µM (inactive) | 23.8 µM (inactive) | 9.25 µM (inactive) | 2.62 µM (inactive) | > 39.9 µM (inactive) | 22.1 µM (inactive) | 13.8 µM (inactive) | 13.2 µM (inactive) | 23.6 µM (inactive) | 6.07 µM (inactive) | 22.2 µM (inactive) | 3.59 µM (inactive)
4 | CC(=O)N(O)CCCCCNC(=O)CCC(=O)N(O)CCCCCNC(=O)CCC(=O)N(O)CCCCCN [DEFEROXAMINE HYDROCHLORIDE] | 31 µM (inactive) | 51.6 µM (inactive) | 30.1 µM (inactive) | 55.7 µM (inactive) | 37.9 µM (inactive) | 20.6 µM (inactive) | > 100 µM (inactive) | 24.5 µM (inactive) | 20.9 µM (inactive) | 6.53 µM (inactive) | 21.7 µM (inactive) | 29.1 µM (inactive) | 38.2 µM (inactive) | 13.6 µM (inactive) | 37.9 µM (inactive) | 26.7 µM (inactive) | > 72.3 µM (inactive) | 31.6 µM (inactive) | 7.38 µM (inactive) | 13.5 µM (inactive)
